Values quoted from earlier work as cited in PMC5516987, “Safety and pharmacodynamics of dalazatide, a Kv1.3 channel inhibitor, in the treatment of plaque psoriasis: A randomized phase 1b trial” (PLoS ONE, 2017).

What was measured:
[1] = 4-AP and related compounds
From the text: One potassium channel blocking drug that has been tested in humans is the nonselective potassium channel inhibitor, 4-aminopyridine (4-AP, fampridine, dalfampridine). Various formulations of 4-AP have been evaluated for their potential to increase nerve conduction and improve function in spinal cord injury, autoimmune diseases involving the nervous system, and diseases of nerve conduction. The most commonly reported adverse events are paresthesia (perioral and digital), nausea, dizziness, headache, and insomnia. Although infrequent, the most serious toxicity reported in patients treated ...

[2] = system: viral and bacterial infections; settings: chronically treated animals, versus vehicle
From the text: Dalazatide (previously referred to as ShK-186 and SL5) is a 37-amino acid synthetic peptide that is a specific inhibitor of the voltage-gated Kv1.3 potassium channel. It is a derivative of ShK, which was originally isolated from the venom of the sea anemone Stichodactyla helianthus. Human T cells rely on two potassium channels, Kv1.3 and KCa3.1 to maintain the calcium signaling required for their activation and differentiation, by maintaining a balance between calcium influx and potassium efflux. Chronically activated memory T cells that rely on upregulation of Kv1.3 expression for ...

| Compound | Crossing of the blood-brain barrier [1] | Clearance of viral and bacterial infections [2] |
| --- | --- | --- |
| Nc1ccncc1 [4-AP, 4-aminopyridine] | readily cross the blood-brain barrier | – |
| C[C@@H]1C[C@H]2[C@@H]3CCC4=CC(=O)C=C[C@]4(C)[C@@]3(F)[C@@H](O)C[C@]2(C)[C@@]1(O)C(=O)CO [dexamethasone] | – | significantly delayed clearance rate |
